Measured values taken from patent publication US8017594B2, “Agent against psychosocial stresses” (Yamasa Corporation, priority 2006, dated 2011).

System: isolation-reared male ddy mice
Assay: Aggressive behavior of isolation-reared (sociopsychological stress) mice
Assay type: in vivo
Conditions: six weeks after initiation of isolation-rearing, two mice in same cage for 20 minutes, vs solvent
Description: Conceivably, this phenomenon is attributed to the fact that rearing of experimental animals under conditions where social environmental change or social stimuli are absent imposes a kind of sociopsychological stress on the animals (“Mechanism of Sleep,” pp. 52-73 “Stress and Sleep,” Asakura Publishing Co., Ltd. (1997)). In Example 1, anti-stress effects of uridine and GABA (i.e., control) were evaluated through use of this phenomenon. Specifically, isolation-rearing of male ddy mice was initiated at four weeks old, to thereby impose sociopsychological stress (stress caused by isolation-rearing) on the mice. Thus, animal models for evaluation were prepared.
On the basis of this report, the following evaluation was carried out. Specifically, six weeks after initiation of isolation-rearing, two mice were placed in the same cage for 20 minutes, and the time during which aggressive behavior was observed was measured. The effect of uridine or GABA on prolongation of aggressive behavior was evaluated.
A test compound was suspended or dissolved in 0.5% aqueous carboxymethylcellulose solution, and the resultant suspension or solution was orally administered once a day, six days a week, until the end of the experiment.
Mice were divided into four groups. Mice of one group were group-reared and received a solvent. Mice of the other three groups were isolation-reared and received a solvent (100 mg/kg/day), uridine (100 mg/kg/day), and GABA (100 mg/kg/day), respectively. Observation of aggressive behavior was carried out in […] of mice in each group (n=9).
The experiment of Example 1 was repeated, except that the dose of uridine was changed to 10 mg/kg/day, and uridylic acid was administered in place of GABA at a dose of 1 g/kg/day.

[1] = 100 mg/kg/day oral, once a day six days a week

Compound	time during which aggressive behavior was observed (10 mg/kg/day oral (low-dose))	time during which aggressive behavior was observed [1]	time during which aggressive behavior was observed (1 g/kg/day oral)
O=c1ccn([C@@H]2O[C@H](CO)[C@@H](O)[C@H]2O)c(=O)[nH]1 [uridine]	significantly reduced	significantly reduced	
O=c1ccn([C@@H]2O[C@H](COP(=O)(O)O)[C@@H](O)[C@H]2O)c(=O)[nH]1 [uridylic acid]			significantly reduced
NCCCC(=O)O [GABA, γ-aminobutyric acid, reference compound]		significantly reduced	
